Laboratory results taken from US20100022562A1, “Use of Plant Growth Regulators to Reduce Abscisic Acid Related Plant Leaf Yellowing” (priority 2008, published 2010).

Columns and labels:
Pansy plants [1] = assay: Pansy leaf transpiration rate (LI-1600 Steady State Porometer); assay type: in vivo; settings: for Transpiration rate (% of control): Matrix Premium Rose
Method: (§1) Uniform plants were selected for the study. Prior to chemical treatment, plants were saturated with water and then drained for about two hours. A total of 20 mL chemical solution, which is equivalent to about 10% of the cell volume, was applied to each plant with 3 mL solution foliar applied to canopy and 17 mL solution drench applied to root zone. Unless specified, watering of plants was stopped after chemical treatment.
(§2) After chemical treatment, plants were arranged in a randomized complete block experimental design. The plants were rated daily for the extent of wilting on a scale from 1 (no wilting) to 4 (complete wilting) to generated a sales index rating. A rating of 2.5 was the point at which a plant was determined to be unmarketable and the previous day was recorded as the shelf life of that plant in days. Yellow leaf number was counted at 3 days after chemical treatment. Leaf transpiration rate was measured after treatment using a LI-1600 Steady State Porometer (LI-Cor, Lincoln, Nebr.). The transpiration rate of each treatment was calculated as the percentage of that of control at each day to reduce day-to-day variation caused by changes of environmental condition such as light intensity, humidity, and temperature.

Pansy plants [2] = assay: Pansy shelf life under drought (daily wilting rating, sales index); assay type: in vivo
Method: All studies were conducted in the greenhouse at the research farm of Valent BioSciences Corporation (Long Grove, Ill.). Pansy plants were obtained either from local retailers as mature plants, or plugs from wholesale nurseries. Plugs of Pansy plants were transplanted into an 18-cell flat filled with Promix BX (available from Premier Horticulture Inc. Quakertown, Pa.) and grown for about 30 days prior to treatment. During growing periods, plants received daily irrigation and weekly fertilizer (1 g/L all purpose fertilizer 20-20-20, The Scotts Company, Marysville, Ohio).
as §1, §2

(S)-5-(1-hydroxy-2,6,6,-trimethyl-4-oxo-2-cyclohexen-1-yl)-3-methyl-(2Z,4E)-pentadienoic acid [ABA]
Transpiration rate (% of control) (Pansy plants [1]; 3 mg ABA, no water, day 1 after treatment, Table 14): 22 % of control
Transpiration rate (% of control) (Pansy plants [1]; 3 mg ABA, no water, day 2 after treatment, Table 14): 15 % of control
Transpiration rate (% of control) (Pansy plants [1]; 3 mg ABA, no water, day 3 after treatment, Table 14): 34 % of control
Transpiration rate (% of control) (Pansy plants [1]; 3 mg ABA, no water, day 4 after treatment, Table 14): 35 % of control
Transpiration rate (% of control) (Pansy plants [1]; 3 mg ABA, no water, day 5 after treatment, Table 14): 27 % of control
Transpiration rate (% of control) (Pansy plants [1]; 3 mg ABA, watered, day 1 after treatment, Table 14): 23 % of control
Transpiration rate (% of control) (Pansy plants [1]; 3 mg ABA, watered, day 2 after treatment, Table 14): 18 % of control
Transpiration rate (% of control) (Pansy plants [1]; 3 mg ABA, watered, day 3 after treatment, Table 14): 36 % of control
Transpiration rate (% of control) (Pansy plants [1]; 3 mg ABA, watered, day 4 after treatment, Table 14): 43 % of control
Transpiration rate (% of control) (Pansy plants [1]; 3 mg ABA, watered, day 5 after treatment, Table 14): 59 % of control
Transpiration rate (% of control) (Pansy plants [1]; 3 mg ABA, watered, day 7 after treatment, Table 14): 76 % of control
Transpiration rate (% of control) (Pansy plants [1]; 3 mg ABA, watered, day 10 after treatment, Table 14): 97 % of control
Transpiration rate (% of control) (Pansy plants [1]; 3 mg ABA, watered, day 15 after treatment, Table 14): 97 % of control
Transpiration inhibition (Pansy plants [1]; 3 mg ABA, watered, within 5 days after treatment): more than 50%
Transpiration rate (% of control) (Pansy plants [1]; 30 mg ABA, day 1 after ABA treatment, Table 12): 6 % of control
Transpiration rate (% of control) (Pansy plants [1]; 30 mg ABA, day 2 after ABA treatment, Table 12): 8 % of control
Transpiration rate (% of control) (Pansy plants [1]; 30 mg ABA, day 3 after ABA treatment, Table 12): 11 % of control
Transpiration rate (% of control) (Pansy plants [1]; 30 mg ABA, no water, day 1 after treatment, Table 14): 7 % of control
Transpiration rate (% of control) (Pansy plants [1]; 30 mg ABA, no water, day 2 after treatment, Table 14): 8 % of control
Transpiration rate (% of control) (Pansy plants [1]; 30 mg ABA, no water, day 3 after treatment, Table 14): 8 % of control
Transpiration rate (% of control) (Pansy plants [1]; 30 mg ABA, no water, day 4 after treatment, Table 14): 15 % of control
Transpiration rate (% of control) (Pansy plants [1]; 30 mg ABA, no water, day 5 after treatment, Table 14): 21 % of control
Transpiration rate (% of control) (Pansy plants [1]; 30 mg ABA, no water, day 7 after treatment, Table 14): 27 % of control
Transpiration rate (% of control) (Pansy plants [1]; 30 mg ABA, watered, day 1 after treatment, Table 14): 7 % of control
Transpiration rate (% of control) (Pansy plants [1]; 30 mg ABA, watered, day 2 after treatment, Table 14): 7 % of control
Transpiration rate (% of control) (Pansy plants [1]; 30 mg ABA, watered, day 3 after treatment, Table 14): 9 % of control
Transpiration rate (% of control) (Pansy plants [1]; 30 mg ABA, watered, day 4 after treatment, Table 14): 15 % of control
Transpiration rate (% of control) (Pansy plants [1]; 30 mg ABA, watered, day 5 after treatment, Table 14): 21 % of control
Transpiration rate (% of control) (Pansy plants [1]; 30 mg ABA, watered, day 7 after treatment, Table 14): 28 % of control
Transpiration rate (% of control) (Pansy plants [1]; 30 mg ABA, watered, day 10 after treatment, Table 14): 56 % of control
Transpiration rate (% of control) (Pansy plants [1]; 30 mg ABA, watered, day 15 after treatment, Table 14): 99 % of control
Transpiration inhibition (Pansy plants [1]; 30 mg ABA, watered, through 10 days after treatment): more than 50%
Shelf life (Pansy plants [2]; 0.3 mg ABA, Matrix Yellow, Table 5): 4.8 days
Shelf life (Pansy plants [2]; 0.3 mg ABA, Matrix Yellow, Table 6): 4.8 days
Shelf life (Pansy plants [2]; 0.3 mg ABA, Matrix Yellow, Table 17): 3.2 days
Shelf life (Pansy plants [2]; 1 mg, Matrix Orange, drought, Table 1): 5.0 days
Shelf life (Pansy plants [2]; 3 mg ABA, Colossus Formula Mix, no water, Table 20): 5.2 days
Shelf life (Pansy plants [2]; 3 mg ABA, Delta Premium Pure White, Table 21): 8.3 days
Shelf life (Pansy plants [2]; 3 mg ABA, Delta Premium Pure White, Table 22): 5.7 days
Shelf life (Pansy plants [2]; 3 mg ABA, Delta Premium Pure White, Table 24): 5.2 days
Shelf life (Pansy plants [2]; 3 mg ABA, Matrix Yellow, Table 5): 5.7 days
Shelf life (Pansy plants [2]; 3 mg ABA, Matrix Yellow, Table 6): 6.0 days
Shelf life (Pansy plants [2]; 3 mg ABA, Matrix Yellow, Table 17): 4.3 days
Shelf life (Pansy plants [2]; 3 mg ABA, no water, Matrix Premium Rose, Table 13): 4.8 days
Shelf life (Pansy plants [2]; 3 mg, Clear Sky Yellow, drought, Table 8): 6.5 days
Shelf life (Pansy plants [2]; 3 mg, Crown Azure Blue, drought, Table 9): 5.2 days
Shelf life (Pansy plants [2]; 3 mg, Delta Premium Pure Golden Yellow, advanced seedling stage (1 month old), drought, Table 4): 4.2 days
Shelf life (Pansy plants [2]; 3 mg, Delta Premium Pure Golden Yellow, drought, Table 3): 5.3 days
Shelf life (Pansy plants [2]; 3 mg, Matrix Orange, drought, Table 1): 5.8 days
Shelf life (Pansy plants [2]; 3 mg, Matrix Orange, drought, Table 2): 5.2 days
Shelf life (Pansy plants [2]; 3 mg, Matrix Yellow, drought, Table 7): 7.7 days
Shelf life (Pansy plants [2]; 3 mg, Matrix Yellow, drought, Table 10): 4.3 days
Shelf life (Pansy plants [2]; 10 mg, Delta Premium Pure Golden Yellow, advanced seedling stage (1 month old), drought, Table 4): 5.7 days
Shelf life (Pansy plants [2]; 10 mg, Delta Premium Pure Golden Yellow, drought, Table 3): 6.5 days
Shelf life (Pansy plants [2]; 10 mg, Matrix Orange, drought, Table 1): 7.0 days
Shelf life (Pansy plants [2]; 10 mg, Matrix Orange, drought, Table 2): 6.7 days
Shelf life (Pansy plants [2]; 30 mg ABA, Colossus Formula Mix, Table 18): 6.2 days
Shelf life (Pansy plants [2]; 30 mg ABA, Colossus Formula Mix, no water, Table 20): 6.5 days
Shelf life (Pansy plants [2]; 30 mg ABA, Delta Premium Pure White, Table 19): 8.7 days
Shelf life (Pansy plants [2]; 30 mg ABA, Delta Premium Pure White, Table 21): 10.2 days
Shelf life (Pansy plants [2]; 30 mg ABA, Delta Premium Pure White, Table 22): 9.2 days
Shelf life (Pansy plants [2]; 30 mg ABA, Delta Premium Pure White, Table 23): 8.2 days
Shelf life (Pansy plants [2]; 30 mg ABA, Delta Premium Pure White, Table 24): 7.2 days
Shelf life (Pansy plants [2]; 30 mg ABA, Matrix Premium Rose, no water from 1 day after ABA, Table 11): 7.2 days
Shelf life (Pansy plants [2]; 30 mg ABA, Matrix Yellow, Table 5): 10.2 days
Shelf life (Pansy plants [2]; 30 mg ABA, Matrix Yellow, Table 6): 10.8 days
Shelf life (Pansy plants [2]; 30 mg ABA, Matrix Yellow, Table 17): 8.3 days
Shelf life (Pansy plants [2]; 30 mg ABA, no water, Matrix Premium Rose, Table 13): 7.2 days
Shelf life (Pansy plants [2]; 30 mg, Clear Sky Yellow, drought, Table 8): 7.8 days
Shelf life (Pansy plants [2]; 30 mg, Crown Azure Blue, drought, Table 9): 6.7 days
Shelf life (Pansy plants [2]; 30 mg, Delta Premium Pure Golden Yellow, advanced seedling stage (1 month old), drought, Table 4): 7.7 days
Shelf life (Pansy plants [2]; 30 mg, Delta Premium Pure Golden Yellow, drought, Table 3): 8.0 days
Shelf life (Pansy plants [2]; 30 mg, Matrix Orange, drought, Table 1): 8.0 days
Shelf life (Pansy plants [2]; 30 mg, Matrix Orange, drought, Table 2): 9.2 days
Shelf life (Pansy plants [2]; 30 mg, Matrix Yellow, drought, Table 7): 9.3 days
Shelf life (Pansy plants [2]; 30 mg, Matrix Yellow, drought, Table 10): 8.0 days
